Results on 16 compounds are retold here after patent US20260325533A1, “CDK INHIBITOR COMPOUNDS” (ALEKSIA THERAPEUTICS, INC., priority 2023, published 2026).

Where two headings read alike, the source gives them in different places.

Format in all cases: biochemical
For one assay, the target named is CDK2/CCNE1 (Homo sapiens, UniProt P24941). Put plainly: CDK2 homogeneous time-resolved fluorescence (HTRF) kinase assay. The following applies: CDK2/CCNE. The method, boiled down: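 TR-FRET read-out (665 nm, or 665/615 ratio) of Eu-antibody detection of phospho-4E-BP1 (Thr37/46) ULight peptide. Enzyme 3 nM, ATP 1 mM, peptide 50 nM, 1% DMSO; 60 min reaction at 23 °C after 20 min compound preincubation. IC50 from 11-point half-log titrations, top typically 10 μM.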
Background: Time-resolved FRET reads energy transfer from a long-lived donor to a nearby acceptor.

The next assay deals with CDK1/CCNB1 (Homo sapiens, UniProt P06493). The assay is described as follows: CDK1 homogeneous time-resolved fluorescence (HTRF) kinase assay. As to conditions: >250 nM; CDK1/CCNB; read-out: CDK1/CCNB IC50 >250 nM. The method, boiled down:
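Kinase activity is measured as Lance signal (665 nm, or 665/615 nm ratio) from europium-labelled anti-phospho-Thr37/46 antibody binding ULight-4E-BP1 peptide. Reactions contain 0.5 nM enzyme, 1 mM ATP, 1% DMSO and run 60 min at 23 °C before EDTA quench.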

A further assay deals with CDK4/CCND3 (Homo sapiens, UniProt P11802). The assay is described as follows: CDK4 homogeneous time-resolved fluorescence (HTRF) kinase assay. The following applies: CDK4/CCND. The method, boiled down: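 IC50 values were derived from 11-point half-log dilutions, usually starting at 10 μM. Compound was first held for 20 min at 23 °C with 1.5 nM CDK4/CCND3. 1 mM ATP and 50 nM ULight-eIF4E-BP1 (Thr37/46) substrate were then added for 60 min, and the TR-FRET 665 nm signal was measured after EDTA stop and Eu-anti-phospho-4E-BP1 detection.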
Sequence of CDK4/CCND3 (P11802 whole entry): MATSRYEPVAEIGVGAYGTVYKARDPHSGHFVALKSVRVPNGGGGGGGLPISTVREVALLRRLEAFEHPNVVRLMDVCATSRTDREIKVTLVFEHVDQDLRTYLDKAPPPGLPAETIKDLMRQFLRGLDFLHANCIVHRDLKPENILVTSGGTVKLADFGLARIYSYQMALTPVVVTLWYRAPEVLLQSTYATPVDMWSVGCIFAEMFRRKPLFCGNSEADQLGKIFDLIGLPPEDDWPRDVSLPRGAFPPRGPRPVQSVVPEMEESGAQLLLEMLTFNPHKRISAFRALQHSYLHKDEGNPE
Sequence of CDK4/CCND3 (P30281 whole entry partner): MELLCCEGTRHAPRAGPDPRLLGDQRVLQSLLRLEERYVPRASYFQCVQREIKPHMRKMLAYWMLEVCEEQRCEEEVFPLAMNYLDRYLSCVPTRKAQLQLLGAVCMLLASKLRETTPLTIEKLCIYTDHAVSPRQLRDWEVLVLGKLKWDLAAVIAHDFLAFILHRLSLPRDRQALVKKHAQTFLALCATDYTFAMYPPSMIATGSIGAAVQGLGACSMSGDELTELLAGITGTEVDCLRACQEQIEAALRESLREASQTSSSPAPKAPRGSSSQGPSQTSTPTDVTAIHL

In a further assay the target is CDK6/CCND1 (Homo sapiens, UniProt Q00534). Put plainly: CDK6 homogeneous time-resolved fluorescence (HTRF) kinase assay. The following applies: CDK6/CCND, 1 mM ATP. The method, boiled down: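 Recombinant CDK6/CCND1 (1 nM final) was preincubated with compound for 20 min at 23 °C in HEPES buffer with MgCl2, EGTA, DTT and Tween 20. Kinase reaction then ran 60 min at 23 °C with 1 mM ATP and 50 nM ULight-4E-BP1 (Thr37/46) peptide, and was stopped with EDTA.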
Sequence of CDK6/CCND1 (Q00534 whole entry): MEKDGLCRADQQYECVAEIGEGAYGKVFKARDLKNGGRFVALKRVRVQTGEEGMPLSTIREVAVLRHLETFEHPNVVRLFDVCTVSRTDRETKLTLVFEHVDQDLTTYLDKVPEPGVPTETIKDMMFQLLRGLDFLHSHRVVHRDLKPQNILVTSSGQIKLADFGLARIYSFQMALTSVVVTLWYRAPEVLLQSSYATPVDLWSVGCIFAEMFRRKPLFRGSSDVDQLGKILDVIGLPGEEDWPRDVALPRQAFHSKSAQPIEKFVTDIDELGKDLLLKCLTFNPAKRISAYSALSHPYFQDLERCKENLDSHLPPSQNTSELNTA
Sequence of CDK6/CCND1 (P24385 whole entry partner): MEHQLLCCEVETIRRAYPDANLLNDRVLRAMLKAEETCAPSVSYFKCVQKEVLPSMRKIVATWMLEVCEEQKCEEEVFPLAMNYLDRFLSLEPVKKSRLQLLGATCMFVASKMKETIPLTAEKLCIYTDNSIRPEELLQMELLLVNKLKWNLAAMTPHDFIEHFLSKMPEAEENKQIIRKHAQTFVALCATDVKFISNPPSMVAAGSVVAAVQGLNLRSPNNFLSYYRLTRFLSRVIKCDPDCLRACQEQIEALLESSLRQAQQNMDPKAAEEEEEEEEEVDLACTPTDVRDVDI

The mark [1] stands for this setting: <25 nM, read-out: CDK2/CCNE IC50, <25 nM.
The mark [2] stands for this setting: >250 nM, read-out: CDK4/CCND IC50, >250 nM.
[3] abbreviates: >250 nM, read-out: CDK6/CCND IC50, >250 nM.
Setting [4] is: 25-250 nM, read-out: CDK2/CCNE IC50, 25-250 nM.
Setting [5] is: 25-250 nM, read-out: CDK4/CCND IC50, 25-250 nM.
[6] abbreviates: 25-250 nM, read-out: CDK6/CCND IC50, 25-250 nM.

Sequence of CDK1/CCNB1 (P06493 whole entry): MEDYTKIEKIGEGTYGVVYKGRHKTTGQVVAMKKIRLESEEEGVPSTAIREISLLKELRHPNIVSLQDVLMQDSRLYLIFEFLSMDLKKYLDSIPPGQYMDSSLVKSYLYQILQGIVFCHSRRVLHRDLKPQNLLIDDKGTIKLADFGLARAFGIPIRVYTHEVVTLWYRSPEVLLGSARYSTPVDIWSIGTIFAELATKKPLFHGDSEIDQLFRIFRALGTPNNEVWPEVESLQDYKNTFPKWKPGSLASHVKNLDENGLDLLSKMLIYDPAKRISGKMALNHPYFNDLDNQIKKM
Sequence of CDK1/CCNB1 (P14635 whole entry partner): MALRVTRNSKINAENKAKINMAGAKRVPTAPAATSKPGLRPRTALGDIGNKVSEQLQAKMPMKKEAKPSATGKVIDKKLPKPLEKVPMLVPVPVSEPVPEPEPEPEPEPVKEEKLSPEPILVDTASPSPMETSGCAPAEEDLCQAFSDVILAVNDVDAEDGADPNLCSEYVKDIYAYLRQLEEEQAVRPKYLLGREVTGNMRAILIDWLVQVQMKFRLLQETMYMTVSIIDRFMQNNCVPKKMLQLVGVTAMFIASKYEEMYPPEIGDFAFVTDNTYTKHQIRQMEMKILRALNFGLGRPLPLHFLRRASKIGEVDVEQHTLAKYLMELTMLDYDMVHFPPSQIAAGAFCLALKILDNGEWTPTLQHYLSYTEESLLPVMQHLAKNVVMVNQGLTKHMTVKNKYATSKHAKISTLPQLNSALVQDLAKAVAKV

Consider `Cc1c(-c2nccc3cnc(Nc4ccc(S(=O)(=O)Nc5nccc(N6CCN(C)CC6)n5)cc4)cc23)ccc2c1cnn2CC(C)(C)O` [Ex 892, 4-((5-(1-(2-hydroxy-2-methylpropyl)-4-methyl-1H-indazol-5-yl)-2,6-naphthyridin-3-yl)amino)-N-(4-(4-methylpiperazin-1-yl)pyrimidin-2-yl)benzenesulfonamide], for which the IC50 on CDK2/CCNE1 (setting [1]) is less than 25 nM; at CDK1/CCNB1, greater than 250 nM; on CDK4/CCND3 (setting [2]), greater than 250 nM; on CDK6/CCND1 (setting [3]), greater than 250 nM.

Take `Cc1c(-c2nccc3cnc(Nc4ccc(S(=O)(=O)Nc5nccc(N6CCOCC6)n5)cc4)cc23)ccc2c1cnn2CC(C)(C)O` [Ex 893, 4-((5-(1-(2-hydroxy-2-methylpropyl)-4-methyl-1H-indazol-5-yl)-2,6-naphthyridin-3-yl)amino)-N-(4-morpholinopyrimidin-2-yl)benzenesulfonamide]: the IC50 on CDK2/CCNE1 (setting [1]) is less than 25 nM; on CDK1/CCNB1 it was greater than 250 nM; on CDK4/CCND3 (setting [2]) it was greater than 250 nM; on CDK6/CCND1 (setting [3]), greater than 250 nM.

Consider `Cc1c(-c2nccc3cnc(Nc4ccc(S(=O)(=O)Nc5ncc(C(F)(F)F)cn5)cc4)cc23)ccc2c1cnn2CC(C)(C)O` [Ex 894, 4-((5-(1-(2-hydroxy-2-methylpropyl)-4-methyl-1H-indazol-5-yl)-2,6-naphthyridin-3-yl)amino)-N-(5-(trifluoromethyl)pyrimidin-2-yl)benzenesulfonamide], for which the IC50 on CDK2/CCNE1 (setting [4]) is 25 to 250 nM; on CDK1/CCNB1, greater than 250 nM; on CDK4/CCND3 (setting [2]), greater than 250 nM; on CDK6/CCND1 (setting [3]), greater than 250 nM.

With `Cc1c(-c2nccc3cnc(Nc4ccc(S(=O)(=O)Nc5ncc(Cl)cn5)cc4)cc23)ccc2c1cnn2CC(C)(C)O` [Ex 895, N-(5-chloropyrimidin-2-yl)-4-((5-(1-(2-hydroxy-2-methylpropyl)-4-methyl-1H-indazol-5-yl)-2,6-naphthyridin-3-yl)amino)benzenesulfonamide], the IC50 on CDK2/CCNE1 (setting [4]) is 25 to 250 nM; at CDK1/CCNB1 it was greater than 250 nM; at CDK4/CCND3 (setting [2]) it was greater than 250 nM; at CDK6/CCND1 (setting [3]), greater than 250 nM.

Regarding `Cc1cnc(NS(=O)(=O)c2ccc(Nc3cc4c(-c5ccc6c(cnn6CC(C)(C)O)c5C)nccc4cn3)cc2)nc1` [Ex 896, 4-((5-(1-(2-hydroxy-2-methylpropyl)-4-methyl-1H-indazol-5-yl)-2,6-naphthyridin-3-yl)amino)-N-(5-methylpyrimidin-2-yl)benzenesulfonamide], the IC50 on CDK2/CCNE1 (setting [1]) is less than 25 nM; at CDK1/CCNB1, greater than 250 nM; on CDK4/CCND3 (setting [5]), 25 to 250 nM; on CDK6/CCND1 (setting [6]), 25 to 250 nM.

Turning to `COc1ccnc(NS(=O)(=O)c2ccc(Nc3cc4c(-c5ccc6c(cnn6CC(C)(C)O)c5C)nccc4cn3)cc2)n1` [Ex 897, 4-((5-(1-(2-hydroxy-2-methylpropyl)-4-methyl-1H-indazol-5-yl)-2,6-naphthyridin-3-yl)amino)-N-(4-methoxypyrimidin-2-yl)benzenesulfonamide], the IC50 was less than 25 nM at CDK2/CCNE1 (setting [1]), greater than 250 nM on CDK1/CCNB1, greater than 250 nM at CDK4/CCND3 (setting [2]) and 25 to 250 nM at CDK6/CCND1 (setting [6]).

As for `COc1cc(OC)nc(NS(=O)(=O)c2ccc(Nc3cc4c(-c5ccc6c(cnn6CC(C)(C)O)c5C)nccc4cn3)cc2)n1` [Ex 898, N-(4,6-dimethoxypyrimidin-2-yl)-4-((5-(1-(2-hydroxy-2-methylpropyl)-4-methyl-1H-indazol-5-yl)-2,6-naphthyridin-3-yl)amino)benzenesulfonamide], the IC50 is less than 25 nM on CDK2/CCNE1 (setting [1]), greater than 250 nM on CDK1/CCNB1, greater than 250 nM at CDK4/CCND3 (setting [2]) and greater than 250 nM at CDK6/CCND1 (setting [3]).

Regarding `Cc1cc(C#Cc2nccc3cnc(Nc4ccc(S(C)(=O)=O)cc4)cc23)sn1` [Ex 899, 5-((3-methylisothiazol-5-yl)ethynyl)-N-(4-(methylsulfonyl)phenyl)-2,6-naphthyridin-3-amine], the IC50 was 25 to 250 nM on CDK2/CCNE1 (setting [4]), greater than 250 nM at CDK1/CCNB1, greater than 250 nM at CDK4/CCND3 (setting [2]) and greater than 250 nM on CDK6/CCND1 (setting [3]).

As for `CS(=O)(=O)c1ccc(Nc2cc3c(C#Cc4ccc(C#N)s4)nccc3cn2)cc1` [Ex 900, 5-((7-((4-(methylsulfonyl)phenyl)amino)-2,6-naphthyridin-1-yl)ethynyl)thiophene-2-carbonitrile], the IC50 was 25 to 250 nM at CDK2/CCNE1 (setting [4]), greater than 250 nM on CDK1/CCNB1, greater than 250 nM at CDK4/CCND3 (setting [2]) and greater than 250 nM on CDK6/CCND1 (setting [3]).

For the compound `Cc1cnc(C#Cc2nccc3cnc(Nc4ccc(S(C)(=O)=O)cc4)cc23)[nH]1` [Ex 901, 5-((5-methyl-1H-imidazol-2-yl)ethynyl)-N-(4-(methylsulfonyl)phenyl)-2,6-naphthyridin-3-amine], the IC50 on CDK2/CCNE1 (setting [4]) was 25 to 250 nM; at CDK1/CCNB1, greater than 250 nM; at CDK4/CCND3 (setting [2]), greater than 250 nM; on CDK6/CCND1 (setting [3]), greater than 250 nM.

In the case of `CC#Cc1nccc2cnc(Nc3ccc(S(=O)(=O)Nc4nccc(C)n4)cc3)cc12` [Ex 905, N-(4-methylpyrimidin-2-yl)-4-((5-(prop-1-yn-1-yl)-2,6-naphthyridin-3-yl)amino)benzenesulfonamide], the IC50 on CDK2/CCNE1 (setting [4]) was 25 to 250 nM; at CDK1/CCNB1 it was greater than 250 nM; at CDK4/CCND3 (setting [2]), greater than 250 nM; at CDK6/CCND1 (setting [3]), greater than 250 nM.

Consider `COc1cnc(NS(=O)(=O)c2ccc(Nc3cc4c(-c5ccc6c(cnn6CC(C)(C)O)c5C)nccc4cn3)cc2)nc1` [Ex 906, 4-((5-(1-(2-hydroxy-2-methylpropyl)-4-methyl-1H-indazol-5-yl)-2,6-naphthyridin-3-yl)amino)-N-(5-methoxypyrimidin-2-yl)benzenesulfonamide], for which the IC50 at CDK2/CCNE1 (setting [1]) is less than 25 nM; on CDK1/CCNB1, greater than 250 nM; on CDK4/CCND3 (setting [2]) it was greater than 250 nM; on CDK6/CCND1 (setting [3]), greater than 250 nM.

As to `Cc1c(-c2nccc3cnc(Nc4ccc(S(=O)(=O)Nc5nccc(C(F)(F)F)n5)cc4)cc23)ccc2c1cnn2CC(C)(C)O` [Ex 907, 4-((5-(1-(2-hydroxy-2-methylpropyl)-4-methyl-1H-indazol-5-yl)-2,6-naphthyridin-3-yl)amino)-N-(4-(trifluoromethyl)pyrimidin-2-yl)benzenesulfonamide], the IC50 at CDK2/CCNE1 (setting [1]) is less than 25 nM; on CDK1/CCNB1, greater than 250 nM; at CDK4/CCND3 (setting [2]) it was greater than 250 nM; on CDK6/CCND1 (setting [3]) it was greater than 250 nM.

Regarding `Cc1ccnc(NS(=O)(=O)c2ccc(Nc3cc4c(-c5ccc6c(cnn6CC(C)(C)O)c5C)nccc4cn3)cc2)n1` [Ex 908, 4-((5-(1-(2-hydroxy-2-methylpropyl)-4-methyl-1H-indazol-5-yl)-2,6-naphthyridin-3-yl)amino)-N-(4-methylpyrimidin-2-yl)benzenesulfonamide], the IC50 is less than 25 nM at CDK2/CCNE1 (setting [1]), greater than 250 nM on CDK1/CCNB1, 25 to 250 nM at CDK4/CCND3 (setting [5]) and 25 to 250 nM on CDK6/CCND1 (setting [6]).

For `COc1nccc(C#Cc2nccc3cnc(Nc4ccc(S(C)(=O)=O)cc4)cc23)c1C` [Ex 909, 5-((2-methoxy-3-methylpyridin-4-yl)ethynyl)-N-(4-(methylsulfonyl)phenyl)-2,6-naphthyridin-3-amine], the IC50 on CDK2/CCNE1 (setting [4]) is 25 to 250 nM; on CDK1/CCNB1, greater than 250 nM; at CDK4/CCND3 (setting [2]), greater than 250 nM; at CDK6/CCND1 (setting [3]) it was greater than 250 nM.

As for `COc1cc(C)c(C#Cc2nccc3cnc(Nc4ccc(S(C)(=O)=O)cc4)cc23)cn1` [Ex 910, 5-((6-methoxy-4-methylpyridin-3-yl)ethynyl)-N-(4-(methylsulfonyl)phenyl)-2,6-naphthyridin-3-amine], the IC50 on CDK2/CCNE1 (setting [4]) was 25 to 250 nM; on CDK1/CCNB1, greater than 250 nM; on CDK4/CCND3 (setting [2]), greater than 250 nM; at CDK6/CCND1 (setting [3]), greater than 250 nM.
